Assay results taken from paper PMC8244912, “An oxytocin/vasopressin-related neuropeptide modulates social foraging behavior in the clonal raider ant” (PLoS Biology, 2021).
Entries after “also recorded” stand apart in the source; their conditions may differ. Where a SMILES comes first, the peptide text is derived from it. Bridges are numbered along the chain shown (N, C = ends).

Tests used:
[1] = tested on: HEK293T cells transfected with an empty vector; assay: Calcium flux, HEK293T cells transfected with empty vector; type: cell-based, human; conditions: inotocin 100 nM
Description: (§1) Human embryonic kidney 293T (HEK293T) cells were cultured in DMEM supplemented with 10% FBS at 37°C in a tissue culture incubator with a humidified atmosphere containing 5% CO2. Cells were plated in 10-cm dishes, and, when they reached 60% to 70% confluency, they were transfected with a pcDNA3.3 vector containing approximately 1 ng of inotocin receptor cDNA or an empty vector as a control using Lipofectamine 2000. Cells were transfected directly into poly-D-lysine–coated 384-well plates and incubated for 48 hours at 37°C. Subsequently, cells were incubated with FLIPR Calcium 4 Assay kit dye for 1 hour in the incubator. The fluorescence (excitation, 488 nm; emission, 530 nm) of the wells was recorded using a Flex Station II 384 (Molecular Devices, San Jose, California, USA), and a dose curve of inotocin (0 to 3 μM) was applied to the wells, in sextuplicate (see below for inotocin peptide synthesis). We calculated the EC50 values using Prism (GraphPad Software version 8) nonlinear regression, 4-parameter logistic curve fit. Dose curves were repeated at least 3 times on independently prepared samples and different days. Results were consistent across replicates, and example dose curves are shown in Fig 1C and S4A Fig. Control experiments are shown in S2–S5 Figs.

[2] = tested on: O. biroi inotocin receptor (itcR); assay: Calcium flux, inotocin receptor co-transfected with G proteins or empty vector; type: cell-based, Ooceraea biroi
Description: as §1
(C and D) Co-transfection with Gq alpha 16. (E and F) Co-transfection with Gq alpha with Gi alpha C term chimera. […]

[3] = tested on: O. biroi inotocin receptor splice variant ObiroiItr_H (lacks TM4-7); assay: Calcium imaging (fura-2), truncated receptor isoform H; type: cell-based, Ooceraea biroi
Description: The full-length inotocin receptor cDNA sequence that was cloned and used for calcium assays is ObiroiItr_A (GenBank MW660838; for protein sequence, see S1 Fig). We also tested splice variant ObiroiItr_H (GenBank MW660845; for protein sequence, see S1 Fig), which lacks TM4-7, for calcium activity.
(§2) Experiments were conducted following Garrison J.L., et al 2012 [8] with modifications. Human embryonic kidney 293T cells (HEK293T) were cultured in DMEM and supplemented with 10% FBS at 37 °C in a cell incubator containing 5% CO^2. Cells were grown in 35 mm MatTek glass bottom dishes to a level of 60 – 70% confluency. Cells were transfected with a 1:1 ratio of PCDNA3.3 containing ~ 1μg of itcR cDNA (full-length isoform A or truncated isoform H) (See S1 Fig for isoforms) and pcDNA3-alpha 16 (encoding promiscuous G protein 16) using Lipofectamine 2000. Cells were incubated for 24 h at 37 °C and then transferred to 28 °C for another 16-24 h. For control experiments, empty vector was also transfected. On the day of the experiment, the cells were loaded with […] fura-2/AM (Invitrogen) for 25 min at 37 °C. Inotocin peptide diluted in Ringer’s solution was applied to the cells for 15 s with a peristaltic pump, and fluorescence at 510 nm was monitored (excitation at 340/380 nm) using a MetaFluor calcium imaging system with a Nikon Eclipse TE2000U microscope.

[4] = tested on: HEK293T cells transfected with an empty vector; assay: Calcium imaging (fura-2), empty vector; type: cell-based, human
Description: as §2

Ooceraea biroi ants = assay: Pharmacological immersion, mixed-age colonies: ants outside the nest (S9 Fig); type: in vivo; conditions: immersion in 1 mM; mixed-age colonies with larvae; 5 hours; n = 6; p = 0.0002, extra sum-of-squares F-test
Excerpt: Mature O. biroi inotocin peptide (CLITNCPRG) was synthesized and cyclized at The Rockefeller University Proteomics Resource Center, along with a scrambled version of the peptide (NRPCGLTCI) as a negative control with identical amino acid composition.
For the initial experiment (S9 Fig), we set up 6 experimental colonies of line B ants that were color tagged as previously described. Each colony consisted of 16 ants in an airtight Petri dish with a 5-cm diameter; 8 age-matched 4-week-old and 8 age-matched approximately 20-week-old ants. We added ten 3- to 4-day-old larvae to the colonies. We used Logitech (Lausanne, Switzerland) C910 USB cameras to record 5 hours after the treatments, and we used ImageJ to split the videos in batches of 5,000 frames (corresponding to 18.75-minute intervals). We sampled every 10th frame from the 5,000 frames and overlaid the resulting 500 frames into a single image using ImageJ. In each image, we manually counted the number of instances of ants that were outside the nest as a proxy for foraging behavior. Color tagging was used to differentiate inotocin treated from mock treated and untreated ants. The nest was defined as a region of high density of ants in the 500 image projections.
On the day of the experiment, colonies were not fed. To avoid disturbance to the colony as much as possible, half the colony was left untreated, and half was treated. […]

In the case of `CC[C@H](C)[C@@H]1NC(=O)[C@H](CC(C)C)NC(=O)[C@@H](N)CSSC[C@@H](C(=O)N2CCC[C@H]2C(=O)N[C@@H](CCCNC(=N)N)C(=O)NCC(N)=O)NC(=O)[C@H](CC(N)=O)NC(=O)[C@H]([C@@H](C)O)NC1=O` [Inotocin] (H-CLITNCPRG-NH2; disulfide 1-6; N-terminus and C-terminus assumed), the “calcium response” value [1] is reported as “No Ca^2+ influx is detected”, the “calcium response” value ([2]; co-transfection with Gq alpha 16, Gq alpha with Gi alpha C term chimera, or Gq alpha with Go alpha C term chimera compared with empty vector) is reported as “does not require co-transfection with a G-protein” and the “calcium response” value ([2]; itcR co-transfected with empty vector (no G protein), 28°C or constantly 37°C) is reported as “response in a dose dependent manner; also recorded: show calcium responses when stimulated with inotocin”. The “calcium signal” value [3] was “no response to inotocin; also recorded: No calcium signal is detected; also recorded: does not respond to inotocin”, the “calcium signal” value [4] was “No calcium signal is detected” and the “time/instances outside the nest vs scrambled control peptide” value (Ooceraea biroi ants) was “spent more time outside the nest than controls; also recorded: foraged more when treated with inotocin than when treated with the control peptide”.
